Test results: patent publication US11332459B2 (TEIJIN PHARMA LIMITED, priority 2017, dated 2022)

biological target: T1, human TRPC6 (Homo sapiens, UniProt Q9Y210); test: TRPC6 calcium flux assay (FLIPR, OAG-stimulated calcium influx); format: cell-based; details: HEK293 cells stably transfected with human TRPC6, read-out: hTRPC6 Potency
T1 construct: expressed in transfected cells
T1 sequence (Q9Y210 1-931): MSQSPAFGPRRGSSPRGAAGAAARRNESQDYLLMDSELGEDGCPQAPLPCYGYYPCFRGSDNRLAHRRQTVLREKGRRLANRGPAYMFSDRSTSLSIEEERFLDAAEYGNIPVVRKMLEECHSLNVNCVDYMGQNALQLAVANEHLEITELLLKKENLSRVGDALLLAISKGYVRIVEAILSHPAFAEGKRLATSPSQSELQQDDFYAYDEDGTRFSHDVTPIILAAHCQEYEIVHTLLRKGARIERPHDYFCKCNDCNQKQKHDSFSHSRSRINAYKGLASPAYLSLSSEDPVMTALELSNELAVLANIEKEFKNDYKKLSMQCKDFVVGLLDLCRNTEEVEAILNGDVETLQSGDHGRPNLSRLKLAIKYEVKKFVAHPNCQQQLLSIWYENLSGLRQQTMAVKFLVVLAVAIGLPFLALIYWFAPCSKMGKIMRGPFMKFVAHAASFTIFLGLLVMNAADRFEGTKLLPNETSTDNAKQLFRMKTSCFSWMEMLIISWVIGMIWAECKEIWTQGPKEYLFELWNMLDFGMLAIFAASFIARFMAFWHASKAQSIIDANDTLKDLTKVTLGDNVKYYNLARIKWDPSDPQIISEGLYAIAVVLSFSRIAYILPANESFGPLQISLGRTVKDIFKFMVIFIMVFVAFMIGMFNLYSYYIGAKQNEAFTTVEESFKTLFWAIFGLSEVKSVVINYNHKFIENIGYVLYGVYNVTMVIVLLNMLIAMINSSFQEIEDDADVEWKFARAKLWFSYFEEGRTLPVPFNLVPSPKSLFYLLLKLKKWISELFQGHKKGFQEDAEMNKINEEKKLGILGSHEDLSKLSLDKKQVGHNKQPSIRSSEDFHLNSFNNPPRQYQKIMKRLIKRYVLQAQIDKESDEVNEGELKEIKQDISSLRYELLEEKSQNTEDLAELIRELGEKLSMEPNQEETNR
Protocol: Biological Example 1 TRPC6 Calcium Flux Assay
Potency of TRPC6 (Transient receptor potential channel family C6) inhibitors were measured by their inhibition of Calcium influx trigged by […] (1-Oleoyl-2-acetyl-sn-glycerol, Millipore Sigma, O6754) stimulation on HEK293 cells stablely transfected with human TRPC6 using a FLIPR tetra system. Cells were grown in a humidified environment at 37° C. under 5% CO2 using the growth medium with the following selective reagents (Dulbecco's Modified Eagle's Medium (DMEM) high glucose, 10% Fetal Bovine Serum, 1×PSGlu (penicillin-streptomycin glutamine), 1×NEAA (Non-essential amino acid), 1× Na Pyruvate and 200 ug/ml Hygromycin). For general passage, cells were grown to 70-90% confluency; the media was removed, and the cells were gently washed 2 times with calcium and magnesium free PBS (phosphate-buffered saline). Trypsin (3 mL) was applied for 5 minutes at 37° C. The cells were dislodged by rapping flask against base of a hand and 7 mL of growth medium was added to deactivate trypsin and re-suspend cells. The usual splitting schedule was 1:5 every 2-3 days.
Cells were plated the day before the assay, plating cell density is 1.0-1.5×10^4/25 μl/well in poly-D-lysine (PDL) coated 384-well plates using either multichannel pipettes or multidrop. These cells were first incubated with fluorescence dye at room temperature for 90-120 minutes after they were grown on PDL-coated 384-well black plates overnight (Dye loading buffer 10 ml example: 9 mL assay buffer, 1 mL, 10×PBX signal enhancer, 10 μL Calcium indicator). The cells were incubated with a dose of compounds for 25 minutes before being stimulated with TRPC6 agonist OAG. The OAG solution was prepared by adding OAG into assay buffer (Ca ringer solution base: 10 mM HEPES (4-(2-hydroxyethyl)-1-piperazine-ethanesulfonic acid), 4 mM MgCl2, 120 mM NaCl, 5 mM KCl, pH=7.2 @25° C.)+0.1% BSA+2 mM CaCl2) to the concentration of 0.2 mM/2% DMSO, which achieves a final on cell concentration of 50 uM/0.5% DMSO. 12.5 uL OAG mixture was added and the activation of the TRPC6 channel was measured by the change of intracellular Calcium levels on FLIPR terra system.
Data was acquired by measuring the fluorescent peak signal subtracted from the background during the 180 second imaging frame. Each data point is further normalized to 100% of OAG triggered signal vs. buffer. Table 16 provides the IC50 for each compound, which data is obtained by plotting peak signal over the compound dose.

IC50 [nM]	Structure (SMILES)
122	N#CC1CN(C(=O)Cn2c(N3CC[C@@H](F)[C@H](N)C3)nc3cc(F)c(F)cc32)CCO1 (mixture of isomers) [Example 627, 4-(2-(2-((3R,4R)-3-amino-4-fluoropiperidin-1-yl)-5,6-difluoro-1H-benzo[d]imidazol-1-yl)acetyl)morpholine-2-carbonitrile]
132	N[C@@H]1CN(c2nc3cc(F)c(F)cc3n2CC(=O)N2CCCC(O)C2)CC[C@H]1F (mixture of isomers) [Example 628, 2-(2-((3R,4R)-3-amino-4-fluoropiperidin-1-yl)-5,6-difluoro-1H-benzo[d]imidazol-1-yl)-1-(3-hydroxypiperidin-1-yl)ethanone]
240	CN(CC1CCOC1)C(=O)Cn1c(N2CC[C@@H](F)[C@H](N)C2)nc2cc(F)c(F)cc21 (mixture of isomers) [Example 633, 2-(2-((3R,4R)-3-amino-4-fluoropiperidin-1-yl)-5,6-difluoro-1H-benzo[d]imidazol-1-yl)-N-methyl-N-((tetrahydrofuran-3-yl)methyl)acetamide]
3170	COCC1CN(C(=O)Cn2c(N3CC[C@@H](F)[C@H](N)C3)nc3cc(F)c(F)cc32)CCO1 (mixture of isomers) [Example 647, 2-(2-((3R,4R)-3-amino-4-fluoropiperidin-1-yl)-5,6-difluoro-1H-benzo[d]imidazol-1-yl)-1-(2-(methoxymethyl)morpholino) ethanone]
> 1750	CCN(CC1CCN(C(C)=O)C1)C(=O)Cn1c(N2CC[C@@H](F)[C@H](N)C2)nc2cc(F)c(F)cc21 (mixture of isomers) [Example 650, N-((1-acetylpyrrolidin-3-yl)methyl)-2-(2-((3R,4R)-3-amino-4-fluoropiperidin-1-yl)-5,6-difluoro-1H-benzo[d]imidazol-1-yl)-N-ethylacetamide]
> 3750	CN(CC1CCS(=O)(=O)C1)C(=O)Cn1c(N2CC[C@@H](F)[C@H](N)C2)nc2cc(F)c(F)cc21 (mixture of isomers) [Example 652, 2-(2-((3R,4R)-3-amino-4-fluoropiperidin-1-yl)-5,6-difluoro-1H-benzo[d]imidazol-1-yl)-N-((1,1-dioxidotetrahydrothiophen-3-yl)methyl)-N-methylacetamide]
260	CN(CC(F)F)C(=O)Cn1c(N2CC[C@@H](F)[C@H](N)C2)nc2cc(F)c(F)cc21 (single isomer, unassigned) [Example 634]
304	CN(CC(F)(F)F)C(=O)Cn1c(N2CC[C@@H](F)[C@H](N)C2)nc2cc(F)c(F)cc21 (single isomer, unassigned) [Example 635]

Further lines, the compound ahead of its results:

Structure (SMILES)	IC50 [nM]
N#Cc1ccc(Cn2c(N3CCCC4(CCCN4)C3)nc3ccccc32)nc1 (racemic) [Example 128, 6-((2-((5R)-1,7-diazaspiro[4.5-]decan-7-yl)-1H-benzimidazol-1-yl)methyl)-3-pyridinecarbonitrile, 6-((2-((5S)-1,7-diazaspiro[4.5]decan-7-yl)-1H-benzimidazol-1-yl)methyl)-3-pyridinecarbonitrile]	49.4
CC1(CN)CCN(c2nc3ccccc3n2Cc2ccc(C#N)cc2)C1 (racemic) [Example 164, 4-((2-(3-(aminomethyl)-3-methylpyrrolidin-1-yl)-1H-benzo[d]imidazol-1-yl)methyl)benzonitrile]	253
N#Cc1ccc(Cn2c(N3C[C@@H](N)[C@H](c4ccccc4)C3)nc3ccccc32)cc1 (racemic) [Example 165, 4-((2-((3S,4R)-3-amino-4-phenylpyrrolidin-1-yl)-1H-benzo[d]imidazol-1-yl)methyl)benzonitrile & 4-((2-((3R,4S)-3 amino-4-phenylpyrrolidin-1-yl)-1H-benzo[d]imidazol-1-yl)methyl)benzonitrile]	2060
CC(c1ccccn1)N(C)C(=O)Cn1c(N2CC[C@@H](F)[C@H](N)C2)nc2cc(F)c(F)cc21 (mixture of isomers) [Example 608, 2-(2-((3R,4R)-3-amino-4-fluoropiperidin-1-yl)-5,6-difluoro-1H-benzo[d]imidazol-1-yl)-N-methyl-N-(1-(pyridin-2-yl)ethyl)acetamide]	18.3
N#Cc1ccc(Cn2c(N3CC[C@@H](F)[C@H](N)C3)nc3ncccc32)cc1 (single isomer, unassigned) [Example 415]	274
CN[C@@H]1CN(c2nc3c(F)cc(F)cc3n2[C@H](C)c2ccc(C#N)cn2)CC[C@H]1F (single isomer, unassigned) [Example 438]	476
CN[C@@H]1CN(c2nc3c(F)cc(F)cc3n2[C@@H](C)c2ccc(C#N)cn2)CC[C@H]1F (single isomer, unassigned) [Example 439]	36.7
CN[C@@H]1CN(c2nc3cc(F)cc(F)c3n2[C@H](C)c2ccc(C#N)cn2)CC[C@H]1F (single isomer, unassigned) [Example 440]	1340
CN[C@@H]1CN(c2nc3cc(F)cc(F)c3n2[C@@H](C)c2ccc(C#N)cn2)CC[C@H]1F (single isomer, unassigned) [Example 441]	2.23
CO[C@@H]1CCN(c2nc3ccc(F)cc3n2Cc2ncc(Cl)cn2)C[C@H]1N (single isomer, unassigned) [Example 456]	8.44
CN(CC(F)(F)F)C(=O)Cn1c(N2CC[C@H](F)[C@H](N)C2)nc2ccc(F)cc21 (single isomer, unassigned) [Example 466]	103
N[C@@H]1CN(c2nc3ccc(F)cc3n2Cc2ncc(Cl)cn2)CC[C@H]1O (single isomer, unassigned) [Example 496]	61.1
Cc1cc(Cn2c(N3CC[C@@H](F)[C@H](N)C3)nc3cc(F)c(F)cc32)ccc1C#N (stereo in doubt) [Example 345, 4-((2-((3R,4R)-3-amino-4-fluoro-1-piperidinyl)-5,6-difluoro-1H-benzimidazol-1-yl)methyl)-2-methylbenzonitrile]	1.5
CCOc1ccc2nc(N3CC[C@@H](F)C(N)C3)n(Cc3ccc(C#N)cc3)c2c1 (stereo in doubt) [Example 414, 4-((2-((3R,4R)-3-amino-4-fluoro-1-piperidinyl)-6-ethoxy-1H-benzimidazol-1-yl)methyl)benzonitrile]	1.5
N#Cc1ccc(Cn2c(N3CCC(F)(F)C(N)C3)nc3ccc(F)cc32)cc1 (stereo in doubt) [Example 416, 4-((2-((3R)-3-amino-4,4-difluoro-1-piperidinyl)-6-fluoro-1H-benzimidazo-1-yl)methyl)benzonitrile]	2.36
CC(c1ncc(Cl)cn1)n1c(N2CC[C@@H](F)[C@H](N)C2)nc2cc(F)c(F)cc21 (stereo in doubt) [Example 508, (3R,4R)-1-(1-((R)-1-(5-chloropyrimidin-2-yl)ethyl)-5,6-difluoro-1H-benzo[d]imidazol-2-yl)-4-fluoropiperidin-3-amine]	112
N#Cc1ccc(Cn2c(N3CCC[C@H](N)C3)nc3ccc(Cl)cc32)nc1 [Example 1, (S)-6-((2-(3-aminopiperidin-1-yl)-6-chloro-1H-benzo[d]imidazol-1-yl)methyl)nicotinonitrile]	0.696
